In US7368578B2, “Five-membered heterocyclic compounds” (Takeda Pharmaceutical Company Limited, priority 2002, dated 2008) one finds melting point data, which are given here for 27 compounds.

Usually melting point stands for the temperature, or range, at which the solid turns liquid. Regarding `CCCc1nnc(/C=C/c2cn(-c3ccccc3)nc2OCc2ccc(OCc3nc(-c4ccco4)oc3C)c(OC)c2)o1` [Example 127, 2-((E)-2-{3-[(4-{[2-(2-furyl)-5-methyl-1,3-oxazol-4-yl]methoxy}-3-methoxybenzyl)oxy]-1-phenyl-1H-pyrazol-4-yl}ethenyl)-5-propyl-1,3,4-oxadiazole], the melting point fell in the range of 165 to 166 °C.
For `COc1cc(COc2nn(-c3ccccc3)cc2/C=C/[S+](C)[O-])ccc1OCc1nc(-c2ccco2)oc1C` (stereo not drawn) [Example 128 (E form), 2-(2-furyl)-4-({2-methoxy-4-[({4-[(E)-2-(methylsulfinyl)ethenyl]-1-phenyl-1H-pyrazol-3-yl}oxy)methyl]phenoxy}methyl)-5-methyl-1,3-oxazole], the melting point was 156 to 157 °C.
As for `COc1cc(COc2nn(-c3ccccc3)cc2/C=C\[S+](C)[O-])ccc1OCc1nc(-c2ccco2)oc1C` (stereo not drawn) [Example 128 (Z form), 2-(2-furyl)-4-({2-methoxy-4-[({4-[(Z)-2-(methylsulfinyl)ethenyl]-1-phenyl-1H-pyrazol-3-yl}oxy)methyl]phenoxy}methyl)-5-methyl-1,3-oxazole], the melting point lay within 180 to 181 °C.
Compound `COc1cc(COc2nn(-c3ccccc3)cc2/C=C/S(C)(=O)=O)ccc1OCc1nc(-c2ccco2)oc1C` [Example 130, 2-(2-furyl)-4-({2-methoxy-4-[({4-[(E)-2-(methylsulfonyl)ethenyl]-1-phenyl-1H-pyrazol-3-yl}oxy)methyl]phenoxy}methyl)-5-methyl-1,3-oxazole] returned a melting point of 152 to 153 °C.
Regarding `COc1cc(COc2nn(-c3ccccc3)cc2/C=C\S(C)(=O)=O)ccc1OCc1nc(-c2ccco2)oc1C` [Example 131, 2-(2-furyl)-4-({2-methoxy-4-[({4-[(Z)-2-(methylsulfonyl)ethenyl]-1-phenyl-1H-pyrazol-3-yl}oxy)methyl]phenoxy}methyl)-5-methyl-1,3-oxazole], the melting point was in the range of 158 to 159 °C.
The compound `CCCc1nnc(/C=C/c2cn(Cc3ccccc3)nc2OCc2ccc(OCc3nc(-c4ccco4)oc3C)c(OC)c2)o1` [Example 132, 2-((E)-2-{1-benzyl-3-[(4-{[2-(2-furyl)-5-methyl-1,3-oxazol-4-yl]methoxy}-3-methoxybenzyl)oxy]-1H-pyrazol-4-yl}ethenyl)-5-propyl-1,3,4-oxadiazole] showed a melting point of 146 to 147 °C.
Consider `CCCc1nnc(/C=C/c2nc(-c3ccccc3)oc2COc2ccc(OCc3nc(-c4ccccc4)oc3C)cc2)o1` [Example 133, 2-{(E)-2-[5-({4-[(5-methyl-2-phenyl-1,3-oxazol-4-yl)methoxy]phenoxy}methyl)-2-phenyl-1,3-oxazol-4-yl]ethenyl}-5-propyl-1,3,4-oxadiazole], for which the melting point lay within 119 to 120 °C.
Regarding `CCOC(=O)/C=C/c1cc(OCc2ccc(OCc3nc(-c4ccco4)oc3C)c(OC)c2)nn1-c1ccccc1` [Example 135, ethyl (2E)-3-{3-[(4-{[2-(2-furyl)-5-methyl-1,3-oxazol-4-yl]methoxy}-3-methoxybenzyl)oxy]-1-phenyl-1H-pyrazol-5-yl}-2-propenoate], the melting point fell in the range of 127 to 128 °C.
For the compound `COc1cc(COc2cc(/C=C/C(=O)O)n(-c3ccccc3)n2)ccc1OCc1nc(-c2ccco2)oc1C` [Example 136, (2E)-3-{3-[(4-{[2-(2-furyl)-5-methyl-1,3-oxazol-4-yl]methoxy}-3-methoxybenzyl)oxy]-1-phenyl-1H-pyrazol-5-yl}-2-propenoic acid], the melting point lay within 191 to 192 °C.
For the compound `CCCc1nnc(/C=C/c2cc(OCc3ccc(OCc4nc(-c5ccco5)oc4C)c(OC)c3)nn2-c2ccccc2)o1` [Example 138, 2-((E)-2-{3-[(4-{[2-(2-furyl)-5-methyl-1,3-oxazol-4-yl]methoxy}-3-methoxybenzyl)oxy]-1-phenyl-1H-pyrazol-5-yl}ethenyl)-5-propyl-1,3,4-oxadiazole], the melting point lay in the range of 107 to 108 °C.
In turn, `COc1cc(COc2cc(/C=C/c3cscn3)n(-c3ccccc3)n2)ccc1OCc1nc(-c2ccco2)oc1C` [Example 139, 2-(2-furyl)-4-({2-methoxy-4-[({1-phenyl-5-[(E)-2-(1,3-thiazol-4-yl)ethenyl]-1H-pyrazol-3-yl}oxy)methyl]phenoxy}methyl)-5-methyl-1,3-oxazole] came in with a melting point of 154 to 155 °C.
As for `COc1cc(COc2cc(/C=C/c3ccccn3)n(-c3ccccc3)n2)ccc1OCc1nc(-c2ccco2)oc1C` [Example 140, 2-((E)-2-{3-[(4-{[2-(2-furyl)-5-methyl-1,3-oxazol-4-yl]methoxy}-3-methoxybenzyl)oxy]-1-phenyl-1H-pyrazol-5-yl}ethenyl)pyridine], the figure is 122 to 123 °C.
As for `COc1cc(COc2cc(CCc3ccccn3)n(-c3ccccc3)n2)ccc1OCc1nc(-c2ccco2)oc1C` [Example 141, 2-(2-{3-[(4-{[2-(2-furyl)-5-methyl-1,3-oxazol-4-yl]methoxy}-3-methoxybenzyl)oxy]-1-phenyl-1H-pyrazol-5-yl}ethyl)pyridine], the figure is 104 to 105 °C.
As for `COc1cc(COc2cc(Cn3cncn3)n(-c3ccccc3)n2)ccc1OCc1nc(-c2ccco2)oc1C` [Example 143, 1-({3-[(4-{[2-(2-furyl)-5-methyl-1,3-oxazol-4-yl]methoxy}-3-methoxybenzyl)oxy]-1-phenyl-1H-pyrazol-5-yl}methyl)-1H-1,2,4-triazole], the melting point fell in the range of 95 to 96 °C.
For the compound `COc1cc(COc2nn(-c3ccccc3)cc2/C=C\c2csc(C)n2)ccc1OCc1nc(-c2ccco2)oc1C` [Example 150 (Z form), 2-(2-furyl)-4-({2-methoxy-4-[({4-[(Z)-2-(2-methyl-1,3-thiazol-4-yl)ethenyl]-1-phenyl-1H-pyrazol-3-yl}oxy)methyl]phenoxy}methyl)-5-methyl-1,3-oxazole], the melting point was 164 to 165 °C.
Consider `CCc1nc(/C=C/c2cn(-c3ccccc3)nc2OCc2ccc(OCc3nc(-c4ccco4)oc3C)c(OC)c2)cs1` [Example 152 (E form), 4-({4-[({4-[(E)-2-(2-ethyl-1,3-thiazol-4-yl)ethenyl]-1-phenyl-1H-pyrazol-3-yl}oxy)methyl]-2-methoxyphenoxy}methyl)-2-(2-furyl)-5-methyl-1,3-oxazole], for which the melting point lay within 108 to 109 °C.
In turn, `CCc1nc(/C=C\c2cn(-c3ccccc3)nc2OCc2ccc(OCc3nc(-c4ccco4)oc3C)c(OC)c2)cs1` [Example 152 (Z form), 4-({4-[({4-[(Z)-2-(2-ethyl-1,3-thiazol-4-yl)ethenyl]-1-phenyl-1H-pyrazol-3-yl}oxy)methyl]-2-methoxyphenoxy}methyl)-2-(2-furyl)-5-methyl-1,3-oxazole] yielded a melting point of 132 to 133 °C.
In the case of `CCOc1cc(COc2nn(-c3ccccc3)cc2C=O)ccc1OCc1nc(-c2ccco2)oc1C` [Example 154, 3-[(3-ethoxy-4-{[2-(2-furyl)-5-methyl-1,3-oxazol-4-yl]methoxy}benzyl)oxy]-1-phenyl-1H-pyrazole-4-carbaldehyde] it was 149 to 150 °C; in that of `COc1cc(COc2nn(-c3ccccc3)cc2/C=C/C(C)=O)ccc1OCc1nc(-c2ccco2)oc1C` [Example 155, (3E)-4-{3-[(4-{[2-(2-furyl)-5-methyl-1,3-oxazol-4-yl]methoxy}-3-methoxybenzyl)oxy]-1-phenyl-1H-pyrazol-4-yl}-3-buten-2-one], 177 to 178 °C; in that of `CCCC(=O)/C=C/c1cn(-c2ccccc2)nc1OCc1ccc(OCc2nc(-c3ccco3)oc2C)c(OC)c1` [Example 157, (1E)-1-{3-[(4-{[2-(2-furyl)-5-methyl-1,3-oxazol-4-yl]methoxy}-3-methoxybenzyl)oxy]-1-phenyl-1H-pyrazol-4-yl}-1-hexen-3-one], 167 to 168 °C.
Consider `COc1cc(COc2nn(-c3ccccc3)cc2/C=C/P(=O)(O)O)ccc1OCc1nc(-c2ccco2)oc1C` [Example 158, (E)-2-{3-[(4-{[2-(2-furyl)-5-methyl-1,3-oxazol-4-yl]methoxy}-3-methoxybenzyl)oxy]-1-phenyl-1H-pyrazol-4-yl}ethenylphosphonic acid], for which the melting point was 138 to 140 °C.
`COc1cc(COc2nn(-c3ccccc3)cc2/C=C/C(=O)N(C)OC)ccc1OCc1nc(-c2ccco2)oc1C` [Example 162, (2E)-3-{3-[(4-{[2-(2-furyl)-5-methyl-1,3-oxazol-4-yl]methoxy}-3-methoxybenzyl)oxy]-1-phenyl-1H-pyrazol-4-yl}-N-methoxy-N-methyl-2-propenamide] had a melting point of 173 to 174 °C.
`COC(=O)c1cc(COc2nn(-c3ccccc3)cc2C=O)ccc1OCc1nc(-c2ccco2)oc1C` [Example 163, methyl 5-{[(4-formyl-1-phenyl-1H-pyrazol-3-yl)oxy]methyl}-2-{[2-(2-furyl)-5-methyl-1,3-oxazol-4-yl]methoxy}benzoate] showed a melting point of 173 to 174 °C.
As for `Cc1oc(-c2ccco2)nc1COc1ccc(COc2nn(-c3ccccc3)cc2C=O)cn1` [Example 164, 3-[(6-{[2-(2-furyl)-5-methyl-1,3-oxazol-4-yl]methoxy}pyridin-3-yl)methoxy]-1-phenyl-1H-pyrazole-4-carbaldehyde], the figure is 122 to 123 °C.
`CCOC(=O)/C=C/c1cn(C)nc1OCc1ccc(OCc2nc(-c3ccco3)oc2C)c(OC)c1` [Example 165, ethyl (2E)-3-{3-[(4-([2-(2-furyl)-5-methyl-1,3-oxazol-4-yl]methoxy}-3-methoxybenzyl)oxy]-1-methyl-1H-pyrazol-4-yl)-2-propenoate] registered a melting point of 135 to 136 °C.
As for `COc1cc(COc2nn(C)cc2/C=C/c2cscn2)ccc1OCc1nc(-c2ccco2)oc1C` [Example 167 (E form), 2-(2-furyl)-4-({2-methoxy-4-[({1-methyl-4-[(E)-2-(1,3-thiazol-4-yl)ethenyl]-1H-pyrazol-3-yl}oxy)methyl]phenoxy}methyl)-5-methyl-1,3-oxazole], the figure is 134 to 135 °C; as for `COc1cc(COc2nn(C)cc2/C=C\c2cscn2)ccc1OCc1nc(-c2ccco2)oc1C` [Example 167 (Z form), 2-(2-furyl)-4-({2-methoxy-4-[({1-methyl-4-[(Z)-2-(1,3-thiazol-4-yl)ethenyl]-1H-pyrazol-3-yl}oxy)methyl]phenoxy}methyl)-5-methyl-1,3-oxazole], 97 to 98 °C.
